In publication PMC4640567, “Cinnamic Acid Bornyl Ester Derivatives from Valeriana wallichii Exhibit Antileishmanial In Vivo Activity in Leishmania major-Infected BALB/c Mice” (PLoS ONE, 2015):

Legend:
L. major promastigotes [1] = test system: L. major promastigotes; set-up: method as in PMID 25834987; conditions: cited from earlier work
L. major amastigotes = test system: L. major amastigotes; set-up: method as in PMID 24473204; conditions: positive control; cited from earlier work
L. major promastigotes [2] = test system: L. major promastigotes; set-up: method as in PMID 24473204; conditions: positive control; cited from earlier work
L. major promastigotes [3] = experiment: Annexin V / propidium iodide flow cytometry, cell death phenotype; format: cell-based, Leishmania major; conditions: 122.7 μM
Procedure: (§1) L. major parasites harvested from blood agar cultures were washed twice with Dulbecco’s phosphate-buffered saline (DPBS; Invitrogen, Darmstadt, Germany) and centrifuged at 3.000 × g for 10 min. The pellet was suspended in RPMI 1640 medium at a final concentration of 1 × 10^8 cells/ml. Cells were treated with 1% DMSO, 122.7 μM miltefosine (1-hexadecylphorylcholine; apoptosis inducer), or 100 μM of the tested compounds 1 and 2 in a final volume of 200 μl in 96 well plates. Samples were incubated at 27°C in 5% CO2 for several time points between 30 min and 24 h. Transmitted light microscopic, transmission electron microscopic (TEM), and flow cytometric techniques were used to find phenotypic patterns caused by the treatment with the tested compounds.
The loss of membrane integrity and translocation of phosphatidylserine (PS) to the outside of the cellular membrane can be determined by annexin V (AV) and propidium iodide (PI) staining. Double staining with AV-fluorescein isothiocyanate (FITC) and PI during flow cytometry analysis leads to discrimination between four populations: double negatives or alive cells (AV^-/PI^-), double positive or late necrotic/late apoptotic cells (AV^+/PI^+), PI-positive and AV-negative or early necrotic cells (AV^-/PI^+), and PI-negative and AV-positive or early apoptotic cells (AV^+/PI^-).
Parasites were harvested after incubation for 6 h, 10 h, and 24 h in the presence of compounds 1, 2 and miltefosine (Cayman Chemical Company, MI, USA), respectively, the latter serving as positive control for the induction of apoptotic cell death. DMSO was used as solvent control. Cell staining was performed using an AV-FITC Apoptosis detection kit (Sigma-Aldrich, Saint Louis, MO, USA). Cells were harvested, washed and suspended in 500 μL of binding buffer, 5 μL of AV-FITC and 10 μl of PI. The cells were incubated for 10 min in the dark at RT. Finally, stained samples were immediately analyzed by flow cytometry using MACSQuant analyzer or a flow cytometer (Becton Dickinson, San José, CA, USA).

L. major promastigotes [4] = experiment: Diff-Quik staining and transmitted light microscopy, cell morphology; format: cell-based, Leishmania major; conditions: 122.7 μM
Procedure: as §1
After incubation for 30 min, 1 h, 2 h, 4 h, and 24 h in the presence of the tested compounds 1 and 2, promastigotes were harvested and centrifuged in a Cytospin 3 centrifuge (Shandon, Frankfurt, Germany) on microscope slides at 253 × g for 5 min at room temperature (RT). Cytospin preparations of cells were stained using the Differential Quick Stain (Diff-Quik) dye (Medion Diagnostics AG, Duedingen, Switzerland), according to the manufacturers’ protocol with some modifications. Diff-Quik stains the leishmanial nuclei and the kinetoplasts dark purple and the cytoplasm light purple allowing the observation of phenotypic changes within the parasite. Briefly, air-dried cells were fixed by dipping the slides 5 times for 3 seconds in fixative solution. Subsequently the slides were stained with Solution I following Solution II (from Diff-Quik kit) and air-dried between each staining steps. Finally, the samples were rapidly dipped once in ultra-pure water (produced by a TKA purification system apparatus, Niederelbert, Germany) to remove excessive staining solutions. The air-dried cells were analyzed by transmitted light microscopy under a 50× objective on a Nikon ECLIPSE 50i microscope equipped with a digital camera (Nikon, Tokyo, Japan). The images were processed using NIS Elements D software (Nikon).

[5] = AlamarBlue cytotoxicity, BMDM; format: cell-based; conditions: bone marrow-derived macrophages (BMDM)
Procedure: BMDM were generated in complete RPMI medium as described previously. On day six, the cytotoxicity against 2 × 10^5 cells/ml was tested at increasing concentrations of compounds 1 and 2 for 48 h. Human embryonic kidney HEK 293 T cells (ATCC, Wesel, Germany) were cultured in Dulbecco´s Modified Eagle Medium (DMEM) (Life Technologies, Darmstadt, Germany), with 10% FCS (PAA Laboratories, Germany). According to the standard operating procedures (SOP) within the Collaborative Research Center 630 (SFB 630) 2 × 10^4 HEK 293 T cells/ml were tested at increasing concentrations of compounds 1 and 2 for 48 h. Human liver carcinoma HepG2 cells (ATCC) were cultured in RPMI medium (Gibco) with 10% FCS. 1 × 10^5 cells/ml HepG2 were tested at increasing concentrations of 1 and 2 for 72 h according to the SOPs. The AlamarBlue assay was performed as described above for L. major parasites.

CC1(C)C2CCC1(C)C(OC(=O)/C=C/c1ccc(O)c(O)c1)C2 (stereo not shown) [caffeic acid bornyl ester]
Antileishmanial activity against L. major promastigotes (L. major promastigotes [1]): good antileishmanial activity

CCCCCCCCCCCCCCCCOP(=O)([O-])OCC[N+](C)(C)C [Miltefosine, 1-hexadecylphorylcholine, reference compound]
IC50 (L. major amastigotes): 33 µM
IC50 (L. major promastigotes [2]): 36.2 µM
LL: live cells (AV-/PI-) (L. major promastigotes [3]; 6 h): 35.5%
LR: early apoptotic cells (AV+/PI-) (L. major promastigotes [3]; 6 h): 8.2%
UL: early necrotic cells (AV-/PI+) (L. major promastigotes [3]; 6 h): 11.8%
UR: necrotic/late apoptotic cells (AV+/PI+) (L. major promastigotes [3]; 6 h): 44.5%
LR: early apoptotic cells (AV+/PI-) (L. major promastigotes [3]; 6 h, listed as miltefosine): 8%
UR: necrotic/late apoptotic cells (AV+/PI+) (L. major promastigotes [3]; 6 h, listed as miltefosine): 45%
LL: live cells (AV-/PI-) (L. major promastigotes [3]; 10 h): 15.9%
LR: early apoptotic cells (AV+/PI-) (L. major promastigotes [3]; 10 h): 13.2%
UL: early necrotic cells (AV-/PI+) (L. major promastigotes [3]; 10 h): 11.3%
UR: necrotic/late apoptotic cells (AV+/PI+) (L. major promastigotes [3]; 10 h): 59.6%
LL: live cells (AV-/PI-) (L. major promastigotes [3]; 24 h): 6.3%
LR: early apoptotic cells (AV+/PI-) (L. major promastigotes [3]; 24 h): 13.0%
UL: early necrotic cells (AV-/PI+) (L. major promastigotes [3]; 24 h): 5.5%
UR: necrotic/late apoptotic cells (AV+/PI+) (L. major promastigotes [3]; 24 h): 75.2%
LR: early apoptotic cells (AV+/PI-) (L. major promastigotes [3]; 24 h, listed as miltefosine): 13%
UR: necrotic/late apoptotic cells (AV+/PI+) (L. major promastigotes [3]; 24 h, listed as miltefosine): 75%
Promastigotes with affinity of the parasitic surface towards AV (L. major promastigotes [3]; within 24 h): 88%
Time after which morphological changes and cell disruption were promoted (L. major promastigotes [4]): 2 h
IC50 at 48 h [5]: 65.5 µM
